This assay concerns the target T1, human RXFP1 (Homo sapiens, UniProt Q9HBX9).
T1 construct: expressed in transfected cells
T1 sequence (Q9HBX9 1-757): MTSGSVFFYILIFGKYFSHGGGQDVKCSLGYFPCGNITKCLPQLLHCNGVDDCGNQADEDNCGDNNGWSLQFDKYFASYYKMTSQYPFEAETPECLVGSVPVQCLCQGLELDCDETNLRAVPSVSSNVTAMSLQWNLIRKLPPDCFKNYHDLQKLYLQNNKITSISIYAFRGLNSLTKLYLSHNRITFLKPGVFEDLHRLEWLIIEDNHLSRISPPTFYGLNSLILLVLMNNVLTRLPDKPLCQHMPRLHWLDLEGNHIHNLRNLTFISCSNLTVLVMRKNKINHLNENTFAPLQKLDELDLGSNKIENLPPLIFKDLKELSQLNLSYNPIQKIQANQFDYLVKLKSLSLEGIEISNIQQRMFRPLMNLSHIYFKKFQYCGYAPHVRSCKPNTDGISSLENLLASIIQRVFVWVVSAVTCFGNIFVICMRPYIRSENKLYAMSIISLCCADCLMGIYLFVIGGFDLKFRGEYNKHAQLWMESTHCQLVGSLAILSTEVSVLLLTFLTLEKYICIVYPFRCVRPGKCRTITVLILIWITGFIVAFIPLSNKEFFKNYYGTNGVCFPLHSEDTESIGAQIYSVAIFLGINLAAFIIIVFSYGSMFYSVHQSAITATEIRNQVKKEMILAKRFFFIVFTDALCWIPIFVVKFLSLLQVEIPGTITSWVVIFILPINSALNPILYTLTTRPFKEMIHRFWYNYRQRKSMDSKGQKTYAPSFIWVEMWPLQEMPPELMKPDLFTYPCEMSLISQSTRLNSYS
Briefly: hRXFP1 HEK293 cAMP assay (HTRF). It counts as cell-based. The conditions noted are these: HEK293 cells stably expressing human RXFP1; 30 min at rt; intracellular cAMP by HTRF. The method, boiled down: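 HEK293 cells stably expressing human RXFP1 treated 30 min at rt with compound (0.010 nM to 50 μM, 2% DMSO) in HBSS/HEPES buffer with 0.5 mM IBMX. Intracellular cAMP measured by HTRF (665/590 nm ratio) against a cAMP standard curve; potency fitted by 4-parameter logistic.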
A general note: cAMP levels reflect the balance of adenylyl cyclase and phosphodiesterase activity.
Broadly, the EC50 is the concentration at which the effect is half-maximal. `COC(=O)C1CN(c2ccc(OC)c(C(=O)Nc3c(C(=O)Nc4ccc(F)c(C(F)(F)F)c4)sc4cc(C(F)(F)F)ccc34)c2)C1` [Example 1, Methyl 1-(3-((2-((4-fluoro-3-(trifluoromethyl)phenyl)carbamoyl)-6-(trifluoromethyl)benzo[b]thiophen-3-yl)carbamoyl)-4-methoxyphenyl)azetidine-3-carboxylate] registered an EC50 of 631 nM. This counts as sub-micromolar. Under `COc1ccc(-n2cc(C(=O)O)cn2)cc1C(=O)Nc1c(C(=O)Nc2ccc(F)c(C(F)(F)F)c2)sc2cc(C(F)(F)F)ccc12` [Example 2, 1-(3-((2-((4-fluoro-3-(trifluoromethyl)phenyl)carbamoyl)-6-(trifluoromethyl)benzo[b]thiophen-3-yl)carbamoyl)-4-methoxyphenyl)-1H-pyrazole-4-carboxylic acid] stands 2010 nM; under `COc1ccc(-n2cc(C(C)(C)O)cn2)cc1C(=O)Nc1c(C(=O)Nc2ccc(F)c(C(F)(F)F)c2)sc2cc(C(F)(F)F)ccc12` [Example 3, N-(4-fluoro-3-(trifluoromethyl)phenyl)-3-(5-(4-(2-hydroxypropan-2-yl)-1H-pyrazol-1-yl)-2-methoxybenzamido)-6-(trifluoromethyl) benzo[b]thiophene-2-carboxamide], 350 nM; under `COc1ccc(N2CCCCS2(=O)=O)cc1C(=O)Nc1c(C(=O)Nc2ccc(F)c(C(F)(F)F)c2)sc2cc(C(F)(F)F)ccc12` [Example 10, 3-(5-(1,1-dioxido-1,2-thiazinan-2-yl)-2-methoxybenzamido)-N-(4-fluoro-3-(trifluoromethyl)phenyl)-6-(trifluoromethyl)benzo[b]thiophene-2-carboxamide], 111 nM. The figure for `COc1ncc(N2CCCC(CO)C2)cc1C(=O)Nc1c(C(=O)Nc2ccc(F)c(C(F)(F)F)c2)sc2cc(C(F)(F)F)ccc12` (centres unmarked) [Example 11, N-(2-((4-fluoro-3-(trifluoromethyl)phenyl)carbamoyl)-6-(trifluoromethyl)benzo[b]thiophen-3-yl)-5-(3-(hydroxymethyl)piperidin-1-yl)-2-methoxynicotinamide] is 2540 nM. `COc1ncc(N2CCS(=O)(=O)CC2)cc1C(=O)Nc1c(C(=O)Nc2ccc(F)c(C(F)(F)F)c2)sc2cc(C(F)(F)F)ccc12` [Example 12, 5-(1,1-dioxidothiomorpholino)-N-(2-((4-fluoro-3-(trifluoromethyl)phenyl)carbamoyl)-6-(trifluoromethyl)benzo[b]thiophen-3-yl)-2-methoxynicotinamide]: the half-maximal effective concentration (EC50) turned out to be 2130 nM.

In turn, `COc1ccc(-c2ccc(F)c(C(=O)O)c2)cc1C(=O)Nc1c(C(=O)Nc2ccc(F)c(C(F)(F)F)c2)sc2cc(C(F)(F)F)ccc12` [Example 13, 4-fluoro-3′-((2-((4-fluoro-3-(trifluoromethyl)phenyl)carbamoyl)-6-(trifluoromethyl)benzo[b]thiophen-3-yl)carbamoyl)-4′-methoxy-[1, 1′-biphenyl]-3-carboxylic acid] returned an EC50 of 87 nM.

Take `COc1ccc(-c2cccc(C(=O)O)c2F)cc1C(=O)Nc1c(C(=O)Nc2ccc(F)c(C(F)(F)F)c2)sc2cc(C(F)(F)F)ccc12` [Example 14, 2-fluoro-3′-((2-((4-fluoro-3-(trifluoromethyl)phenyl)carbamoyl)-6-(trifluoromethyl)benzo[b]thiophen-3-yl)carbamoyl)-4′-methoxy-[1,1′-biphenyl]-3-carboxylic acid]: a half-maximal response (EC50) required 135 nM.

In the case of `COc1ccc(-c2cc(C(=O)O)ccc2F)cc1C(=O)Nc1c(C(=O)Nc2ccc(F)c(C(F)(F)F)c2)sc2ccccc12` [Example 15, 6-fluoro-3′-((2-((4-fluoro-3-(trifluoromethyl)phenyl)carbamoyl)benzo[b]thiophen-3-yl)carbamoyl)-4′-methoxy-[1, 1′-biphenyl]-3-carboxylic acid], a half-maximal response (EC50) required 1560 nM. Compound `COc1ccc(-c2cc(CN)ccc2F)cc1C(=O)Nc1c(C(=O)Nc2ccc(F)c(C(F)(F)F)c2)sc2cc(C(F)(F)F)ccc12` [Example 16, 3-(5′-(aminomethyl)-2′-fluoro-4-methoxy-[1,1′-biphenyl]-3-carboxamido)-N-(4-fluoro-3-(trifluoromethyl)phenyl)-6-(trifluoromethyl)benzo[b]thiophene-2-carboxamide] yielded an EC50 of 677 nM.

`COc1ccc(-c2cc(CNS(C)(=O)=O)ccc2F)cc1C(=O)Nc1c(C(=O)Nc2ccc(F)c(C(F)(F)F)c2)sc2cc(C(F)(F)F)ccc12` [Example 17, N-(4-fluoro-3-(trifluoromethyl)phenyl)-3-(2′-fluoro-4-methoxy-5′-(methylsulfonamidomethyl)-[1,1′-biphenyl]-3-carboxamido)-6-(trifluoromethyl)benzo[b]thiophene-2-carboxamide] had an EC50 of 10.3 nM. As to `COc1ccc(-c2cc(CNC(=O)C3CCC3)ccc2F)cc1C(=O)Nc1c(C(=O)Nc2ccc(F)c(C(F)(F)F)c2)sc2cc(C(F)(F)F)ccc12` [Example 18, 3-(5′-(cyclobutanecarboxamidomethyl)-2′-fluoro-4-methoxy-[1,1′-biphenyl]-3-carboxamido)-N-(4-fluoro-3-(trifluoromethyl)phenyl)-6-(trifluoromethyl)benzo[b]thiophene-2-carboxamide], the response was half-maximal at 311 nM (EC50).

`COc1ccc(-c2cc(CNCC(C)C)ccc2F)cc1C(=O)Nc1c(C(=O)Nc2ccc(F)c(C(F)(F)F)c2)sc2cc(C(F)(F)F)ccc12` [Example 19, N-(4-fluoro-3-(trifluoromethyl)phenyl)-3-(2′-fluoro-5′-((isobutylamino)methyl)-4-methoxy-[1,1′-biphenyl]-3-carboxamido)-6-(trifluoromethyl) benzo[b]thiophene-2-carboxamide]: the EC50 was 1010 nM. Under `COc1ccc(-c2cc([C@H](OC(=O)NC3CCC3)C(F)(F)F)ccc2F)cc1C(=O)Nc1c(C(=O)Nc2ccc(F)c(C(F)(F)F)c2)sc2cc(C(F)(F)F)ccc12` [Example 22, (S)-2,2,2-trifluoro-1-(6-fluoro-3′-((2-((4-fluoro-3-(trifluoromethyl)phenyl)carbamoyl)-6-(trifluoromethyl)benzo[b]thiophen-3-yl)carbamoyl)-4′-methoxy-[1, 1′-biphenyl]-3-yl) ethyl cyclobutylcarbamate] stands 0.5 nM; under `COc1ccc(C(=O)N2CC(C)(C)C2)cc1C(=O)Nc1c(C(=O)Nc2ccc(F)c(C(F)(F)F)c2)sc2cc(C(F)(F)F)ccc12` [Example 27, 3-(5-(3,3-dimethylazetidine-1-carbonyl)-2-methoxybenzamido)-N-(4-fluoro-3-(trifluoromethyl)phenyl)-6-(trifluoromethyl) benzo[b]thiophene-2-carboxamide], 1720 nM. Under `COc1cc(F)c(C(=O)N2CC(S(C)(=O)=O)C2)cc1C(=O)Nc1c(C(=O)Nc2ccc(F)c(C(F)(F)F)c2)sc2cc(C(F)(F)F)ccc12` [Example 28, 3-(4-fluoro-2-methoxy-5-(3-(methylsulfonyl)azetidine-1-carbonyl)benzamido)-N-(4-fluoro-3-(trifluoromethyl)phenyl)-6-(trifluoromethyl)benzo[b]thiophene-2-carboxamide] stands 48.7 nM; under `COc1ccc(C(=O)N2CC3(C2)CS(=O)(=O)C3)cc1C(=O)Nc1c(C(=O)Nc2ccc(F)c(C(F)(F)F)c2)sc2cc(C3CC3)ncc12` [Example 29, 6-cyclopropyl-3-(5-(2,2-dioxido-2-thia-6-azaspiro [3.3]heptane-6-carbonyl)-2-methoxybenzamido)-N-(4-fluoro-3-(trifluoromethyl)phenyl) thieno [3,2-c]pyridine-2-carboxamide], 1340 nM; under `COc1ccc(S(=O)(=O)N2CCC[C@@H](N)C2)cc1C(=O)Nc1c(C(=O)Nc2ccc(F)c(C(F)(F)F)c2)sc2cc(C(F)(F)F)ccc12` [Example 30, (R)-3-(5-((3-aminopiperidin-1-yl)sulfonyl)-2-methoxybenzamido)-N-(4-fluoro-3-(trifluoromethyl)phenyl)-6-(trifluoromethyl) benzo[b]thiophene-2-carboxamide], 2540 nM. For `COc1ccc(S(=O)(=O)N2CCC[C@@H](NCC(N)=O)C2)cc1C(=O)Nc1c(C(=O)Nc2ccc(F)c(C(F)(F)F)c2)sc2cc(C(F)(F)F)ccc12` [Example 31], the response was half-maximal at 3280 nM (EC50). Under `COc1ccc(C2CCCNCC2)cc1C(=O)Nc1c(C(=O)Nc2ccc(F)c(C(F)(F)F)c2)sc2cc(C(F)(F)F)ccc12` (centres unmarked) [Example 39, 3-(5-(azepan-4-yl)-2-methoxybenzamido)-N-(4-fluoro-3-(trifluoromethyl)phenyl)-6-(trifluoromethyl)benzo[b]thiophene-2-carboxamide] stands 2800 nM.

The values are drawn from patent publication US20260265233A1, “BENZOTHIOPHENE DERIVATIVES AS RXFP1 AGONISTS” (BRISTOL-MYERS SQUIBB COMPANY, priority 2021, published 2026).
